Reference: patent US20190062428A1, “COMBINATION OF ANTI-CD47 ANTIBODIES AND CELL DEATH-INDUCING AGENTS, AND USES THEREOF” (Surface Oncology, Inc., priority 2017, published 2019)

Test system: Ri-1 tumors
Experiment: Ri-1 human B cell lymphoma (DLBCL) subcutaneous xenograft, tumor volume
Format: in vivo, CB.17 SCID mice
Details: FIG. 4
Procedure: The Ri-1 cell line is a human B cell lymphoma line that represents the ABC-subtype of diffuse large cell B cell lymphoma (DLBCL) and harbors a BCL-2 amplification. ABT-199, also known as Venclexta™ or Venetoclax, is an oral BCL-2 inhibitor, and was used as the cell death-inducing agent.
Briefly, 1×10^7 Ri-1 cells were injected subcutaneously into the right flank of CB.17 SCID mice in a 1:1 mixture of RPMI and Matrigel. Tumors were allowed to grow until they were 200-300 mm^3.

**Q.** Which results are given for CC1(C)CCC(CN2CCN(c3ccc(C(=O)NS(=O)(=O)c4ccc(NCC5CCOCC5)c([N+](=O)[O-])c4)c(Oc4cnc5[nH]ccc5c4)c3)CC2)=C(c2ccc(Cl)cc2)C1 [ABT-199, reference compound]?
**A.** single-agent anti-tumor activity (2.3D11 100 μg/mouse days 0, 3, 7, ABT-199 25 mg/kg days 0-4): potent single-agent anti-tumor activity; tumor re-growth (single agents as above, combination: 2.3D11 100 μg/mouse day 0, then oral ABT-199 25 mg/kg days 3, 4, 5): tumors re-grew
